“And” between values parts separate entries of the source, which are not always exact repeats. Identical values can stand only once.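 Values below derive from 48-hour exposures of cells grown in 96-well plates, with endpoints linearly interpolated between the two concentrations bracketing the appropriate inhibition level. Abbreviation: GI50, concentration required for 50% inhibition of growth. At the TGI there is no net growth.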
Legend:
Assay in all cases: NCI tumour cell line growth inhibition, 48 h
[1] = system: A498 renal
[2] = system: A549 NSCLC
[3] = system: CAKI-1 renal
[4] = system: CCRF-CEM leukemia
[5] = system: COLO 205 colon
[6] = system: DLD-1 colon
[7] = system: DMS 114 small cell lung
[8] = system: DMS 273 small cell lung
[9] = system: EKVX NSCLC
[10] = system: HCC-2998 colon
[11] = system: HCT-116 colon
[12] = system: HCT-15 colon
[13] = system: HL-60(TB) leukemia
[14] = system: HOP-18 NSCLC
[15] = system: HOP-62 NSCLC
[16] = system: HOP-92 NSCLC
[17] = system: HT29 colon
[18] = system: IGROV1 ovarian
[19] = system: K-562 leukemia
[20] = system: KM12 colon
[21] = system: KM20L2 colon
[22] = system: LOX IMVI melanoma
[23] = system: M19-MEL melanoma
[24] = system: MALME-3M melanoma
[25] = system: MCF7 breast
[26] = system: MOLT-4 leukemia
[27] = system: NCI-H226 lung
[28] = system: NCI-H23 lung
[29] = system: NCI-H460 lung
[30] = system: NCI-H522 lung
[31] = system: NCI/ADR-RES ovarian
[32] = system: OVCAR-3 ovarian
[33] = system: OVCAR-4 ovarian
[34] = system: OVCAR-5 ovarian
[35] = system: OVCAR-8 ovarian
[36] = system: P388/ADR leukemia
[37] = system: RPMI-8226 leukemia
[38] = system: RXF 393 renal
[39] = system: SF-268 CNS
[40] = system: SF-295 CNS
[41] = system: SF-539 CNS
[42] = system: SK-MEL-2 melanoma
[43] = system: SK-MEL-28 melanoma
[44] = system: SK-MEL-5 melanoma
[45] = system: SK-OV-3 ovarian
[46] = system: SN12C renal
[47] = system: SN12K1 renal
[48] = system: SNB-19 CNS
[49] = system: SNB-75 CNS
[50] = system: SNB-78 CNS
[51] = system: SW-620 colon
[52] = system: U251 CNS
[53] = system: UACC-257 melanoma
[54] = system: UACC-62 melanoma
[55] = system: UO-31 renal
[56] = system: XF 498 CNS
[57] = system: P388 leukemia

With `CC(=O)Oc1c(OC(C)=O)c(-c2ccc(O)c(O)c2)c(O)c(O)c1-c1ccc(O)cc1` the TGI [1] was > 100 µM, the TGI [2] was > 100 µM and the TGI [3] was > 100 µM. For the same compound, the GI50 [4] was 24.5 µM, the TGI [4] was 67.8 µM and > 100 µM and the TGI [5] was > 100 µM. For the same compound, the TGI [6] was > 100 µM, the GI50 [7] was 19.1 µM and the TGI [7] was 44 µM and 57.4 µM. The GI50 [8] was 67.1 µM, the TGI [8] was > 100 µM and the TGI [9] was > 100 µM. For the same compound, the TGI [10] was > 100 µM, the GI50 [11] was 36.1 µM and the TGI [11] was > 100 µM. The GI50 [12] was 76.3 µM, the TGI [12] was > 100 µM and the GI50 [13] was 19 µM. The TGI [13] was 52.6 µM and > 100 µM, the TGI [14] was > 100 µM and the TGI [15] was > 100 µM. For the same compound, the GI50 [16] was 60.8 µM, the TGI [16] was > 100 µM and 96.6 µM and the TGI [17] was > 100 µM. The TGI [18] was > 100 µM, the TGI [19] was > 100 µM and the TGI [20] was > 100 µM. For the same compound, the GI50 [21] was 40.7 µM, the TGI [21] was > 100 µM and the TGI [22] was 94 µM and 95.9 µM. The GI50 [23] was 18.1 µM, the TGI [23] was 53.7 µM and 68.5 µM and the GI50 [24] was 51.3 µM. The TGI [24] was > 100 µM, the GI50 [25] was 18.8 µM and the TGI [25] was 35.9 µM and > 100 µM. For the same compound, the GI50 [26] was 53.6 µM, the TGI [26] was > 100 µM and the GI50 [27] was 79.7 µM. For the same compound, the TGI [27] was > 100 µM, the TGI [28] was > 100 µM and the GI50 [29] was 69.7 µM. The TGI [29] was > 100 µM, the GI50 [30] was 20.1 µM and the TGI [30] was 45.2 µM and 33 µM. For the same compound, the TGI [31] was > 100 µM, the GI50 [32] was 59.5 µM and the TGI [32] was > 100 µM. For the same compound, the GI50 [33] was 59 µM, the TGI [33] was > 100 µM and the TGI [34] was > 100 µM. The TGI [35] was > 100 µM, the TGI [36] was 50 µM and the GI50 [37] was 20 µM. For the same compound, the TGI [37] was > 100 µM, the GI50 [38] was > 100 µM and the TGI [38] was > 100 µM. For the same compound, the GI50 [39] was 80.6 µM, the TGI [39] was > 100 µM and the TGI [40] was > 100 µM. The TGI [41] was > 100 µM, the GI50 [42] was 56.5 µM and the TGI [42] was > 100 µM and 92 µM. For the same compound, the TGI [43] was > 100 µM, the TGI [44] was > 100 µM and the TGI [45] was > 100 µM. The GI50 [46] was 73.8 µM, the TGI [46] was > 100 µM and the GI50 [47] was 48.6 µM. The TGI [47] was > 100 µM, the TGI [48] was > 100 µM and the TGI [49] was > 100 µM. The GI50 [50] was > 100 µM, the TGI [50] was > 100 µM and the TGI [51] was > 100 µM. For the same compound, the TGI [52] was > 100 µM, the TGI [53] was > 100 µM and the GI50 [54] was 21.7 µM. For the same compound, the TGI [54] was 45.4 µM and 75.5 µM, the TGI [55] was > 100 µM and the GI50 [56] was 46 µM. For the same compound, the TGI [56] was > 100 µM.
`CN1OC(=O)N(C)C1c1ccccc1` (stereo not drawn) was tested, and the TGI [1] was > 100 µM, the TGI [2] was > 100 µM and the TGI [4] was > 100 µM. For the same compound, the TGI [5] was > 100 µM, the TGI [6] was > 100 µM and the TGI [7] was > 100 µM. The TGI [8] was > 100 µM, the TGI [9] was > 100 µM and the TGI [10] was > 100 µM. For the same compound, the TGI [11] was > 100 µM, the TGI [12] was > 100 µM and the TGI [13] was > 100 µM. The TGI [14] was > 100 µM, the TGI [15] was > 100 µM and the TGI [16] was > 100 µM. For the same compound, the TGI [17] was > 100 µM, the TGI [18] was > 100 µM and the TGI [19] was > 100 µM. The TGI [20] was > 100 µM, the TGI [21] was > 100 µM and the TGI [22] was > 100 µM. The TGI [23] was > 100 µM, the TGI [24] was > 100 µM and the TGI [25] was > 100 µM. For the same compound, the TGI [26] was > 100 µM, the TGI [27] was > 100 µM and the TGI [28] was > 100 µM. The TGI [29] was > 100 µM, the TGI [30] was > 100 µM and the TGI [31] was > 100 µM. The TGI [32] was > 100 µM, the TGI [33] was > 100 µM and the TGI [34] was > 100 µM. For the same compound, the TGI [35] was > 100 µM, the TGI [57] was > 100 µM and the TGI [36] was > 100 µM. For the same compound, the TGI [37] was > 100 µM, the TGI [38] was > 100 µM and the TGI [39] was > 100 µM. The TGI [40] was > 100 µM, the TGI [41] was > 100 µM and the TGI [42] was > 100 µM. The TGI [43] was > 100 µM, the TGI [44] was > 100 µM and the TGI [45] was > 100 µM. For the same compound, the TGI [46] was > 100 µM, the TGI [47] was > 100 µM and the TGI [48] was > 100 µM. The TGI [49] was > 100 µM, the TGI [50] was > 100 µM and the TGI [51] was > 100 µM. For the same compound, the TGI [52] was > 100 µM, the TGI [53] was > 100 µM and the TGI [54] was > 100 µM. The TGI [55] was > 100 µM and the TGI [56] was > 100 µM.

Reference: PubChem BioAssay (NCI)
